Reference: ChEMBL document CHEMBL3885861, “Open TG-GATES”

Species on record: Rattus norvegicus
Assay: Open TG-GATES - Regimen: Single
Assay type: toxicity, organism-based, Sprague-Dawley
Set-up: regimen Single, gender Male, age 6 weeks
Conditions: in vivo, po, 200 mg/kg, route gavage, dose level Middle; for APTT / Bas / Eos / Fbg / Hb / Ht / Lym / MCH / MCHC / MCV / Mono / Neu / PT / Plat / RBC / Ret / WBC: tissue Blood; for KIDNEY_L / KIDNEY_R / KIDNEY_TOTAL: tissue Kidney; for LIVER: tissue Liver; for A/G / ALP / ALT / AST / BUN / CRE / Ca / Cl / DBIL / GLC / IP / K / LDH / Na / PL / RALB / TBIL / TC / TG / TP / gamma-GTP: tissue Plasma

CCOC(=O)[C@H](CCc1ccccc1)N[C@@H](C)C(=O)N1CCC[C@H]1C(=O)O
TERMINAL_BW (3 h): 221.1 g | APTT (3 h): 15.6 s | Bas (3 h): 0% | Eos (3 h): 1% | Fbg (3 h): 207 mg/dL | Hb (3 h): 13.1 g/dL | Ht (3 h): 39.7% | Lym (3 h): 81.6% | MCH (3 h): 22.2 pg | MCHC (3 h): 33.1% | MCV (3 h): 67.1 fL | Mono (3 h): 5% | Neu (3 h): 12.4% | PT (3 h): 12 s | Plat (3 h): 117.9 x10_4/uL | RBC (3 h): 591.2 x10_4/ul | Ret (3 h): 9.1% | WBC (3 h): 93.8 x10_2/uL | KIDNEY_L (3 h): 1 g | KIDNEY_R (3 h): 1 g | KIDNEY_TOTAL (3 h): 2.1 g | LIVER (3 h): 10.4 g | A/G (3 h): 1.8 | ALP (3 h): 823.4 IU/L | ALT (3 h): 45.2 IU/L | AST (3 h): 67 IU/L | BUN (3 h): 21.2 mg/dL | CRE (3 h): 0.5 mg/dL | Ca (3 h): 10.8 mg/dL | Cl (3 h): 107.2 meq/L | DBIL (3 h): 0.01 mg/dL | GLC (3 h): 205.4 mg/dL | IP (3 h): 9.1 mg/dL | K (3 h): 5.5 meq/L | LDH (3 h): 101.8 IU/L | Na (3 h): 139 meq/L | PL (3 h): 129.8 mg/dL | RALB (3 h): 3.4 g/dL | TBIL (3 h): 0.3 mg/dL | TC (3 h): 72.2 mg/dL | TG (3 h): 82 mg/dL | TP (3 h): 5.3 g/dL | gamma-GTP (3 h): 1.6 IU/L | TERMINAL_BW (6 h): 215 g | APTT (6 h): 16.6 s | Bas (6 h): 0% | Eos (6 h): 1% | Fbg (6 h): 208.6 mg/dL | Hb (6 h): 13 g/dL | Ht (6 h): 39.7% | Lym (6 h): 75% | MCH (6 h): 21.2 pg | MCHC (6 h): 32.7% | MCV (6 h): 64.7 fL | Mono (6 h): 9.6% | Neu (6 h): 14.4% | PT (6 h): 11.9 s | Plat (6 h): 109.6 x10_4/uL | RBC (6 h): 615.4 x10_4/ul | Ret (6 h): 8.9% | WBC (6 h): 113.1 x10_2/uL | KIDNEY_L (6 h): 1 g | KIDNEY_R (6 h): 1 g | KIDNEY_TOTAL (6 h): 1.9 g | LIVER (6 h): 9.8 g | A/G (6 h): 2.1 | ALP (6 h): 770.4 IU/L | ALT (6 h): 43.2 IU/L | AST (6 h): 63.2 IU/L | BUN (6 h): 22 mg/dL | CRE (6 h): 0.5 mg/dL | Ca (6 h): 11 mg/dL | Cl (6 h): 105.6 meq/L | DBIL (6 h): 0.022 mg/dL | GLC (6 h): 195.4 mg/dL | IP (6 h): 10.4 mg/dL | K (6 h): 5.1 meq/L | LDH (6 h): 91.6 IU/L | Na (6 h): 139 meq/L | PL (6 h): 144.6 mg/dL | RALB (6 h): 3.6 g/dL | TBIL (6 h): 0.5 mg/dL | TC (6 h): 79.2 mg/dL | TG (6 h): 53.8 mg/dL | TP (6 h): 5.3 g/dL | gamma-GTP (6 h): 1.2 IU/L | TERMINAL_BW (9 h): 214.6 g | APTT (9 h): 15.7 s | Bas (9 h): 0% | Eos (9 h): 1.2% | Fbg (9 h): 207.2 mg/dL | Hb (9 h): 12.8 g/dL | Ht (9 h): 39.2% | Lym (9 h): 71.6% | MCH (9 h): 21.4 pg | MCHC (9 h): 32.6% | MCV (9 h): 65.4 fL | Mono (9 h): 10.2% | Neu (9 h): 17% | PT (9 h): 12.1 s | Plat (9 h): 108.6 x10_4/uL | RBC (9 h): 599.4 x10_4/ul | Ret (9 h): 8.8% | WBC (9 h): 88.4 x10_2/uL | KIDNEY_L (9 h): 1.1 g | KIDNEY_R (9 h): 1 g | KIDNEY_TOTAL (9 h): 2.1 g | LIVER (9 h): 8.8 g | A/G (9 h): 2.1 | ALP (9 h): 931.6 IU/L | ALT (9 h): 36.2 IU/L | AST (9 h): 65.8 IU/L | BUN (9 h): 25.8 mg/dL | CRE (9 h): 0.4 mg/dL | Ca (9 h): 10.8 mg/dL | Cl (9 h): 108 meq/L | DBIL (9 h): 0.03 mg/dL | GLC (9 h): 189.4 mg/dL | IP (9 h): 10.8 mg/dL | K (9 h): 5.2 meq/L | LDH (9 h): 83.8 IU/L | Na (9 h): 139.4 meq/L | PL (9 h): 120.4 mg/dL | RALB (9 h): 3.5 g/dL | TBIL (9 h): 0.4 mg/dL | TC (9 h): 69.4 mg/dL | TG (9 h): 32.2 mg/dL | TP (9 h): 5.2 g/dL | gamma-GTP (9 h): 2.2 IU/L | TERMINAL_BW (24 h): 230.9 g | APTT (24 h): 15.8 s | Bas (24 h): 0% | Eos (24 h): 1.8% | Fbg (24 h): 222.8 mg/dL | Hb (24 h): 13 g/dL | Ht (24 h): 39.2% | Lym (24 h): 71.2% | MCH (24 h): 21.4 pg | MCHC (24 h): 33.1% | MCV (24 h): 64.8 fL | Mono (24 h): 8.8% | Neu (24 h): 18% | PT (24 h): 10.8 s | Plat (24 h): 115.7 x10_4/uL | RBC (24 h): 606 x10_4/ul | Ret (24 h): 8.6% | WBC (24 h): 90.5 x10_2/uL | KIDNEY_L (24 h): 1.1 g | KIDNEY_R (24 h): 1 g | KIDNEY_TOTAL (24 h): 2.1 g | LIVER (24 h): 11.5 g | A/G (24 h): 2 | ALP (24 h): 915.2 IU/L | ALT (24 h): 38.6 IU/L | AST (24 h): 67.6 IU/L | BUN (24 h): 17.6 mg/dL | CRE (24 h): 0.5 mg/dL | Ca (24 h): 11 mg/dL | Cl (24 h): 103.2 meq/L | DBIL (24 h): 0 mg/dL | GLC (24 h): 198 mg/dL | IP (24 h): 8.4 mg/dL | K (24 h): 5 meq/L | LDH (24 h): 106.4 IU/L | Na (24 h): 137.8 meq/L | PL (24 h): 167.4 mg/dL | RALB (24 h): 3.8 g/dL | TBIL (24 h): 0.5 mg/dL | TC (24 h): 91 mg/dL | TG (24 h): 89 mg/dL | TP (24 h): 5.7 g/dL | gamma-GTP (24 h): 1.8 IU/L
